pIC50: −log10 of the molar value.
Experiments:
HDAC1, 2, 3 = settings: comparison value for Tubastatin A; read-out: IC50 against HDAC1, 2, 3; cited from earlier work
[1] = system: LPS-induced endotoxemia mouse model; experiment: Plasma cytokine analysis in the LPS-induced endotoxemia mouse model; type: in vivo, male C57BL/6J mice; settings: 50 mg/kg i.p. 3 hours before 20 mg/kg LPS i.p.; blood 3 hours post-LPS
Method: Terminal cardiac blood draws from the left ventricle occurred 3 hours post LPS injections using a 25 g needle and 1 mL syringe into an EDTA coated lavender blood collection tube (BD Medical, Franklin Lakes, NJ). Blood samples were centrifuged at 1000×g for 10 minutes within 30 minutes of collection. Plasma was extracted and diluted 10,000-fold for ELISA IL-6 measurement and diluted 10-fold for TNFα measurements.
Terminal cardiac blood draws from the left ventricle occurred 3 hours post LPS injections using a 25 g needle and 1 mL syringe into an EDTA coated lavender blood collection tubes (BD Medical, Franklin Lakes, NJ). Blood samples were centrifuged at 1000×g for 10 minutes within 30 minutes of collection. Plasma was extracted and diluted 10,000-fold for ELISA IL-6 measurement and diluted 10-fold for TNFα measurements. MAGPIX Luminex bead-based multiplex ELISA (Thermo Fisher Scientific, Waltham, MA) of mouse plasma (diluted 100-fold) measured for 26 various cytokines and chemokines and data was analyzed using the Luminex xPONENT software (Millipore) as per manufacturer's instructions. The 26-plex panel include murine IL-1β, IL-2, IL-4, IL-5, IL-6, IL-9, IL-10, IL-12p70, IL-13, IL-17A (CTLA-8), IL-18, IL-22, IL-23, IL-27, GM-CSF, IFNγ, TNFα, MCP-1 (CCL2), MIP-1α (CCL3), MIP-10 (CCL4), RANTES (CCL5), MCP-3 (CCL7), Eotaxin (CCL11), GROα (CXCL1), MIP-2a (CXCL2), and IP-10 (CXCL10).

[2] = system: B cells (B220+) isolated from splenocytes; experiment: Splenocyte apoptosis and cell death by AV/PI flow cytometry, B cells; type: cell-based
Method: Splenocytes were isolated from spleens as previously described. Briefly, 5-12-week C57BL/6J female mice were euthanized and the spleen was isolated. The spleen was processed into single-cell suspensions using a 40 μm cell strainer and flushed with cold PBS supplemented with 1% FBS and 0.4% 0.5 M EDTA (Quality Biological, Gaithersburg, MD). Erythrocytes were lysed with ACK lysis buffer (Quality Biological, Gaithersburg, MD). […] Subsequently, splenocytes were stimulated with 100 ng/mL LPS for 24 hours. Splenocytes were then washed with cold PBS supplemented with 1% FBS and 0.4% 0.5 M EDTA and FcR blocked, as previously mentioned. Splenocytes were then stained with purified anti-mouse PE/Cyanine7 CD45R/B220 antibody (#103222) (BioLegend, San Diego, CA) for the B cell population. SAHA and SAHA-OH apoptosis and cell death were then assessed using the FITC-AV Apoptosis Detection Kit with PI via flow cytometry, as previously mentioned. Flow cytometry data were collected using a Cytex Aurora flow cytometer. Flow plots and data processing was done using FCS Express 7 Flow Cytometry De Novo Software (De Novo, Glendale, CA).

BMMØs [3] = type: cell-based
Method: (§1) Three hours later, cells were stimulated with 100 ng/mL LPS. After 48 hours, cells were lifted using Versene and washed with cold PBS supplemented with 1% FBS and 0.4% 0.5 M EDTA (Quality Biological, Gaithersburg, MD). FcR blocking was performed with purified anti-mouse CD16/32 antibody (#101301) (Biolegend, San Diego, CA) prior to staining with Annexin V-FITC and propidium iodide kit (#640914) (BioLegend, San Diego, CA) for apoptosis and cell death. Cell staining was conducted according to BioLegend protocols for flow cytometry. Flow cytometry data were collected using a Becton Dickinson LSR II or Becton Dickinson Canto II flow cytometer. Flow plots and data processing was done using FCS Express 7 Flow Cytometry De Novo Software (De Novo, Glendale, CA).
as §1, with “After” for “Three hours later, cells were stimulated with 100 ng/mL LPS. After”

[4] = system: T cells (CD3+) from splenocytes; experiment: Splenocyte apoptosis and cell death by AV/PI flow cytometry, T cells; type: cell-based; settings: concentrations up to 30 μM
BMMØs [5] = experiment: Western blot analysis of acetyl-histone H3 and acetyl-α-tubulin; settings: 10 μM, unstimulated BMMØs, 4 and 9 hours
Method: Day 8 BMMØs were seeded at 1×10^6 cells/well in sterile 6-well plates incubated at 37° C. and 5% CO2 overnight to allow for cell adherence. […] Cells were lysed with Halt™ Protease Inhibitor Cocktail (Cat #78429) (Thermo Fisher, Waltham MA) in RIPA Buffer (Cat #R0278) (Sigma-Aldrich, St. Louis, MO) and scraped with a cell scraper (VWR, Radnor, PA). Lysates were sonicated with a ⅛^th needle tip using a Cole-Parmer 500-Watt Ultrasonic Homogenizer at 40% amplitude for 10 seconds on ice. Lysates were then centrifuged at 4° C. for 20 minutes at 12,000×g. The supernatant was collected and frozen at −80° C. until ready for western blot analysis. Protein lysates were produced using 50/50 sample to 2×SDS/PAGE sample buffer. Proteins were then separated by SDS/PAGE and immunoblotted using Histone H3 (D1H2) XP, Acetyl-Histone H3 (lys9/Lys14), α-Tubulin (11H10), Acetyl-α-Tubulin (Lys40) (D20G3) XP and β-Actin as primary antibodies. ECL was used for detection.
Day 8 BMMØs were seeded at 1×10^6 cells/well in sterile 6-well plates incubated at 37° C. and 5% CO2 overnight to allow for cell adherence. […] Cells were lysed with Halt™ Protease Inhibitor Cocktail (Cat #78429) (Thermo Fisher, Waltham MA) in RIPA Buffer (Cat #R0278) (Sigma-Aldrich, St. Louis, MO) and scraped with a cell scraper (VWR, Radnor, PA). Lysates were sonicated with a ⅛th needle tip using a Cole-Parmer 500-Watt Ultrasonic Homogenizer at 40% amplitude for 10 seconds on ice. Lysates were then centrifuged at 4° C. for 20 minutes at 12,000×g. The supernatant was collected and frozen at −80° C. until ready for western blot analysis. Protein lysates were produced using 50/50 sample to 2×SDS/PAGE sample buffer. Proteins were then separated by SDS/PAGE and immunoblotted using Histone H3 (D1H2) XP, Acetyl-Histone H3 (Lys9/Lys14), α-Tubulin (11H10), Acetyl-α-Tubulin (Lys40) (D20G3) XP and β-Actin as primary antibodies. ECL was used for detection.

spleen and liver = experiment: Hematoxylin and eosin (H&E) histology of spleen and liver, LPS-induced endotoxemia mice; type: in vivo, male C57BL/6J mice; settings: 50 mg/kg i.p. 3 hours before 20 mg/kg LPS; 3 hours post-LPS
Method: The differences in tissue architecture of liver and spleen were assessed using the same cohort of mice as the cytokine analysis at 3 hours post-LPS administration. Prior to tissue harvest, whole-body perfusion was performed post-cardiac blood draw by slowly flushing 10 mL of 37° C. PBS through the left ventricle of the heart while a cut in the right atrium allowed for the flow of blood. The liver and spleen were harvested, placed into tissue cassettes (VWR, Radnor, PA), and fixed overnight in 10% buffered formalin (Sigma-Aldrich, St. Louis, MO). The following day, the organs were paraffin-embedded and sectioned into 5 μm slices. Slides were stained for H&E to define histological architecture using standard procedures.
The differences in tissue architecture of liver and spleens were assessed at 3 hours post-LPS administration. Prior to tissue harvest, whole body perfusion was performed by slowly flushing 10 mL of 37° C. PBS through the left ventricle of the heart while a cut in the right atrium allowed for the flow of blood. The liver and spleen were harvested, placed into tissue cassettes, and fixed overnight in 10% buffered formalin. The following day, the organs were paraffin embedded and sectioned in 5 μm slices. Slides were stained for H&E to define histological architecture using standard procedures.

[6] = system: LPS-stimulated bone marrow macrophages (BMMØ); experiment: BMMØ cytokine secretion following LPS stimulation (ELISA, Luminex); type: cell-based, C57BL/6J mice
Method: (§2) Three hours later, cells were stimulated with 100 ng/mL LPS. After 48 hours, cell culture supernatants were collected and analyzed by enzyme-linked immunosorbent assays (ELISA) (BioLegend, San Diego, CA) to measure murine IL-6 and TNFα. MAGPIX Luminex bead-based multiplex ELISA (Thermo Fisher Scientific, Waltham, MA) measured for 7 various cytokines and chemokines, and data were analyzed using the Luminex xPONENT software (Millipore) as per manufacturer's instructions. The 7-plex panel included murine IFNβ, IL-10, IL-6, IL-1β, MCP-1 (CCL2), TNFα, and GROα (CXCL1).
as §2, with “After” for “Three hours later, cells were stimulated with 100 ng/mL LPS. After”, “(Milli-pore)” for “(Millipore)”, “TL-6,” for “IL-6,”

[7] = 0-30 μM for 3 hours, then LPS 100 ng/mL 48 hours, ELISA

SMILES	pIC50 (HDAC1, 2, 3)	reduction of plasma IL-6 [1]	reduction of plasma TNFα [1]	toxicity profile for the B cell population ([2]; 0-30 μM)	B cell death (AV+/PI+) ([2]; 10 μM, 24 hours) [%]	B cell viability (AV−/PI−) ([2]; 10 μM, 24 hours) [%]	apoptosis (AV+/PI−) over concentration (BMMØs [3]; 0-30 μM)	viability (AV−/PI−) over concentration (BMMØs [3]; 0-30 μM)	apoptosis (AV+/PI−) (BMMØs [3]; 10 μM, 48 hours) [%]	cellular viability (AV−/PI−) (BMMØs [3]; 10 μM, 48 hours) [%]	toxicity for the T cell population [4]	acetylation of α-tubulin (BMMØs [5])	spleen tissue architecture (H&E) (spleen and liver)	IL-6 cytokine secretion [6, 7]	TNFα cytokine secretion [6, 7]	MCP-1 cytokine secretions ([6]; 10 μM, 3 hours before 48-hour LPS)	secretion of IL-10 ([6]; 10 μM, 3 hours before 48-hour LPS, Luminex, SAHA compared to SAHA-OH)
O=C(CCCCCCC(=O)Nc1ccccc1)NO [SAHA, N^1-hydroxy-N^8-phenyloctanediamide, reference compound]		about 50%	about 50%	concentration-dependent toxicity profiles	54.8	9.5	apoptosis induction	concentration-dependent viability reduction	96.8	3.1	minimal toxicity	similarly resulted in the acetylation	moderate histological disorganization	concentration-dependent reduction	concentration-dependent reduction	non-significantly affected	increased secretion

Source: patent US20250120928A1 (University of Maryland, Baltimore, priority 2021, published 2025)
